Results taken from patent publication US20260216348A1, “IRAK DEGRADATION AGENT AND USE THEREOF” (Increland, priority 2023, published 2026).

How the values were obtained:
Format in all cases: cell-based
[1] = tested on: R848-induced IL-6 secretion in human peripheral blood mononuclear cells (PBMCs); test: Inhibition of R848-induced IL-6 secretion in human PBMCs (IL-6 ELISA); conditions: PBMC, R848 2.5 μg/mL, 20 h pre-incubation, 24 h stimulation
Experimental: This experiment was carried out in RPMI 1640 medium containing 10% FBS and 1% penicillin/streptomycin, with each of the compounds at an initial test concentration of 1 μM. The compound was dissolved in DMSO to prepare a stock solution, which was serially diluted into a series of working solutions with a 4-fold concentration gradient using the culture medium and then added to a 96-well plate at 10 μL per well. PBMCs (Batch No.: P122101102C; Milecell Biotechnology Inc.) were counted and diluted to a cell concentration of 1.25×10^6 cells/mL, and then added to the aforementioned compound-containing 96-well plate at 160 μL per well. The system was mixed well and incubated in a 5% CO2 incubator at 37° C. for 20 h. Then 10 μL of R848 (final concentration: 2.5 μg/mL) was added, and the culture was continued for 24 h in a 5% CO2 incubator at 37° C. After incubation, the 96-well plate was centrifuged at 2000 rpm for 4 min. The supernatant was collected and diluted 120-fold, then detected using an IL-6 ELISA kit. The OD450 values were read, and converted to IL-6 concentrations based on a standard curve.

[2] = tested on: LPS/IL-1β-induced IL-6 secretion in human peripheral blood mononuclear cells (PBMCs); test: Inhibition of LPS/IL-1β-induced IL-6 secretion in human PBMCs (IL-6 ELISA); conditions: PBMC, LPS 10 ng/mL + IL-1β 20 ng/mL, 24 h pre-incubation, 20 h stimulation
Experimental: This experiment was carried out in RPMI 1640 medium containing 10% FBS and 1% penicillin/streptomycin, with each of the compounds at an initial test concentration of 1 μM.
The compound was dissolved in DMSO to prepare a stock solution, which was serially diluted into some working solutions with a 5-fold concentration gradient using the culture medium and then added to a 96-well plate at 10 μL per well. PBMCs (Batch No.: P122101102C; Milecell Biotechnology Inc.) were counted and diluted to a cell concentration of about 1.3×10^6 cells/mL, and then added to the aforementioned compound-containing 96-well plate at 150 μL per well. The system was mixed well and incubated in a 5% CO2 incubator at 37° C. for 24 h. Then 5 μL of LPS (final concentration: 10 ng/mL) and 5 μL of IL-1β (final concentration: 20 ng/mL) were added to each well, respectively, and the culture was continued for 20 h in a 5% CO2 incubator at 37° C. After incubation, the 96-well plate was centrifuged at 2000 rpm for 4 min. The supernatant was collected and diluted 200-fold, then detected using an IL-6 ELISA kit. The OD450 values were read, and converted to IL-6 concentrations based on a standard curve. The dose-response curves were fitted using GraphPad 8.0 to calculate the IC50 values.

[3] = molecular target: T1, IRAK4 (Homo sapiens, UniProt Q9NWZ3); test: IRAK4 protein degradation in THP1 cells (Western blot); conditions: THP-1 cells, 24 h
T1 construct: Effect of the Compounds on IRAK4 Protein Degradation in THP1 Cells; endogenous in cells; host or cells: THP-1 cells
T1 sequence (Q9NWZ3 1-460): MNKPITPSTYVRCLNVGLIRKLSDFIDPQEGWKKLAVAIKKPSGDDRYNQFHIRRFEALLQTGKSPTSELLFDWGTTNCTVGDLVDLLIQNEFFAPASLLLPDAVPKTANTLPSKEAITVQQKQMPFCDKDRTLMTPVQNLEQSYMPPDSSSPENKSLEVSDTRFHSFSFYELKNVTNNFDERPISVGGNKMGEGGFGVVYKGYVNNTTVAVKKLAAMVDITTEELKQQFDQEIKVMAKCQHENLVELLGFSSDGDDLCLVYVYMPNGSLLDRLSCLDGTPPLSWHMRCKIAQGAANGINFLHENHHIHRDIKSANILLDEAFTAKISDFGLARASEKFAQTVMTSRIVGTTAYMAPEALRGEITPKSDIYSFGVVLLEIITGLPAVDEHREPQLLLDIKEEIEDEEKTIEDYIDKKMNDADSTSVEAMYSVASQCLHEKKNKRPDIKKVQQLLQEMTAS
Experimental: THP-1 cells were seeded into a 96-well cell culture plate, with 2×10^5 cells and 90 μL of culture medium per well. The cell culture plate was cultured in an incubator with 5% CO2 at 37° C. overnight. The compound was dissolved in DMSO to prepare a stock solution, which was serially diluted into a series of working solutions with a 5-fold concentration gradient using the culture medium and then added to the aforementioned 96-well plate at 10 μL per well. The cell culture plate was further incubated for 24 h in a 5% CO2 incubator at 37° C. After incubation, the 96-well plate was centrifuged and the supernatant was discarded, followed by adding 40 μL of cell lysis buffer containing […]/phosphatase inhibitors to each well for sufficient lysis on an ice bath. Protein quantification was performed using the BCA protein quantification kit, followed by the preparation of Western blot samples. […] After electrophoresis, protein transfer was performed using a PVDF membrane under ice bath conditions for 1 h. After the transfer was completed, the PVDF membrane was blocked with gentle shaking in 5% skim milk at room temperature for 1 h. After blocking, the PVDF membrane was incubated with the primary antibody overnight with gentle shaking at 4° C. The PVDF membrane was washed 3 times with TBST, then the secondary antibody was added and incubated for 1 h with gentle shaking at room temperature, followed by washing of the PVDF membrane with TBST for 3 times. After the washes were completed, the chemiluminescent substrate was added; the PVDF membrane was scanned using a Clinx imager, semi-quantitative analysis was performed with ImageJ software, and the DC50 was calculated using GraphPad Prism 8.0.

DC50 [3] [nM] | SMILES | IC50 [1] [nM] | IC50 [2] [nM]
– | Cn1c(=O)n(C2CCC(=O)NC2=O)c2cccc(C#CCOC3CCN(C[C@H]4CC[C@H](n5cc(NC(=O)c6cnn7ccc(N8C[C@H]9C[C@@H]8CO9)nc67)c(C(F)F)n5)CC4)CC3)c21 (stereo partly drawn) [Positive compound, reference compound] | 12.1 | 2.99
1.66 | CN(C)c1cc2nn([C@H]3CC[C@H](CN4CC[C@H](n5cc6ccc(C7CCC(=O)NC7=O)cc6n5)[C@@H](F)C4)CC3)cc2cc1NC(=O)c1cnn2cccnc12 (stereo partly drawn) [TM-151] | – | 7.13
0.79 | CN(C)c1cc2nn([C@H]3CC[C@H](CN4CC[C@H](n5cc6ccc(C7CCC(=O)NC7=O)cc6n5)[C@H](F)C4)CC3)cc2cc1NC(=O)c1cnn2cccnc12 (stereo partly drawn) [TM-153] | – | 6.79
1.27 | CN(C)c1cc2nn([C@H]3CC[C@H](CN4CC[C@@H](n5cc6ccc(C7CCC(=O)NC7=O)cc6n5)[C@@H](F)C4)CC3)cc2cc1NC(=O)c1cnn2cccnc12 (stereo partly drawn) [TM-154] | – | 1.45
0.31 | CN(C)c1cc2nn([C@H]3CC[C@H](CN4CC[C@H](n5cc6cc(C7CCC(=O)NC7=O)ccc6n5)[C@H](F)C4)CC3)cc2cc1NC(=O)c1cnn2cccnc12 (stereo partly drawn) [TM-155] | – | 1
0.32 | CN(C)c1cc2nn([C@H]3CC[C@H](CN4CC[C@@H](n5cc6cc(C7CCC(=O)NC7=O)ccc6n5)[C@@H](F)C4)CC3)cc2cc1NC(=O)c1cnn2cccnc12 (stereo partly drawn) [TM-156] | – | 1.17
1.12 | C[C@H]1CN(C[C@H]2CC[C@H](n3cc4cc(NC(=O)c5cnn6cccnc56)c(N(C)C)cc4n3)CC2)CC[C@@H]1n1cc2ccc(C3CCC(=O)NC3=O)cc2n1 (stereo partly drawn) [TM-157] | – | 1.46
1.41 | CN(C)c1cc2nn([C@H]3CC[C@H](CN4CC[C@H](n5cc6cc(F)c(C7CCC(=O)NC7=O)cc6n5)[C@@H](F)C4)CC3)cc2cc1C(=O)Nc1cnn2cccnc12 (stereo partly drawn) [TM-158] | – | 14.6
1.58 | CO[C@H]1CN(C[C@H]2CC[C@H](n3cc4cc(NC(=O)c5cnn6cccnc56)c(N(C)C)cc4n3)CC2)CC[C@@H]1n1cc2ccc(C3CCC(=O)NC3=O)cc2n1 (stereo partly drawn) [TM-166] | – | 0.89
– | CN(C)c1cc2nn(C3CCC(CN4C[C@@H](F)[C@@H](n5cc6cc(N7CCC(=O)NC7=O)ccc6n5)C4)CC3)cc2cc1NC(=O)c1cnn2cccnc12 (stereo partly drawn) [TM-206] | 5.49 | –
– | CN(C)c1cc2nn([C@H]3CC[C@H](CN4C[C@H](F)[C@@H](n5cc6cc(N7CCC(=O)NC7=O)ccc6n5)C4)CC3)cc2cc1NC(=O)c1cnn2cccnc12 [TM-207] | 10.3 | 40.9
– | CN(C)c1cc2nn([C@H]3CC[C@H](CN4CC[C@H](n5cc6c(F)cc(N7CCC(=O)NC7=O)cc6n5)C4)CC3)cc2cc1NC(=O)c1cnn2cccnc12 [TM-216] | 13.4 | –
– | CN(C)c1cc2nn([C@H]3CC[C@H](CN4CC[C@@H](n5cc6c(F)cc(N7CCC(=O)NC7=O)cc6n5)C4)CC3)cc2cc1NC(=O)c1cnn2cccnc12 [TM-217] | 8.59 | –
– | CN(C)c1cc2nn([C@H]3CC[C@H](CN4C[C@@H](n5cc6c(F)cc(N7CCC(=O)NC7=O)cc6n5)[C@@H](F)C4)CC3)cc2cc1NC(=O)c1cnn2cccnc12 [TM-218] | 15.6 | –
– | CN(C)c1cc2nn([C@H]3CC[C@H](CN4C[C@@H](F)[C@@H](n5cc6c(F)cc(N7CCC(=O)NC7=O)cc6n5)C4)CC3)cc2cc1NC(=O)c1cnn2cccnc12 [TM-219] | 14.8 | –
– | CN(C)c1cc2nn([C@H]3CC[C@H](CN4C[C@H](F)[C@@H](n5cc6c(F)cc(N7CCC(=O)NC7=O)cc6n5)C4)CC3)cc2cc1NC(=O)c1cnn2cccnc12 [TM-220] | 8.1 | –
– | O=C1CCC(c2ccc3cn([C@@H]4CCN(C[C@H]5CC[C@H](n6cc7cc(NC(=O)c8cnn9cccnc89)c(F)cc7n6)CC5)C4)nc3c2)C(=O)N1 (stereo partly drawn) [TM-222] | 14 | –
– | CN(C)c1cc2nn([C@H]3CC[C@H](CN4C[C@H](F)[C@@H](n5cc6cc(F)c(N7CCC(=O)NC7=O)cc6n5)C4)CC3)cc2cc1NC(=O)c1cnn2cccnc12 [TM-223] | 10.8 | –
– | CN(C)c1cc2nn([C@@H]3CC[C@@H](CN4CC[C@H](n5cc6c(F)cc(N7CCC(=O)NC7=O)cc6n5)C4)OC3)cc2cc1NC(=O)c1cnn2cccnc12 [TM-224] | 15.5 | –
– | CN(C)c1cc2nn([C@@H]3CC[C@@H](CN4CC[C@@H](n5cc6c(F)cc(N7CCC(=O)NC7=O)cc6n5)C4)OC3)cc2cc1NC(=O)c1cnn2cccnc12 [TM-225] | 12.3 | –
– | CN(C)c1cc2nn([C@H]3CC[C@H](CN4CC[C@@H](c5nc6cc(N7CCC(=O)NC7=O)ccc6o5)C4)CC3)cc2cc1NC(=O)c1cnn2cccnc12 [TM-226] | 4.28 | –
– | CN(C)c1cc2nn([C@H]3CC[C@H](CN4CC[C@H](c5nc6cc(N7CCC(=O)NC7=O)ccc6o5)C4)CC3)cc2cc1NC(=O)c1cnn2cccnc12 [TM-227] | 13.8 | –
– | CN(C)c1cc2nc([C@H]3CC[C@H](CN4CCC(n5cc6c(F)cc(N7CCC(=O)NC7=O)cc6n5)CC4)CC3)cn2nc1NC(=O)c1cnn2cccnc12 [TM-228] | 14.7 | –
– | CN(C)c1cc2nc([C@H]3CC[C@H](CN4C[C@@H](n5cc6cc(N7CCC(=O)NC7=O)ccc6n5)[C@@H](F)C4)CC3)cn2nc1NC(=O)c1cnn2cccnc12 [TM-229] | 19.5 | –
– | CN(C)c1cc2nn([C@H]3CC[C@H](CN4C[C@@H](n5cc6cc(N7CCC(=O)NC7=O)c(F)cc6n5)[C@@H](F)C4)CC3)cc2cc1NC(=O)c1cnn2cccnc12 [TM-232] | 18.9 | –
– | CN(C)c1cc2nn([C@H]3CC[C@H](CN4C[C@@H](n5cc6cc(C7CCC(=O)NC7=O)ccc6n5)[C@@H](F)C4)CC3)cc2cc1NC(=O)c1cnn2cccnc12 (stereo partly drawn) [TM-234] | 14.4 | 8.16
– | CN(C)c1cc2nn([C@H]3CC[C@H](CN4CC[C@@H](n5cc6c(F)cc(C7CCC(=O)NC7=O)cc6n5)C4)CC3)cc2cc1NC(=O)c1cnn2cccnc12 (stereo partly drawn) [TM-235] | 6.08 | –
– | CN(C)c1nc2nc([C@H]3CC[C@H](CN4C[C@@H](n5cc6cc(N7CCC(=O)NC7=O)ccc6n5)[C@@H](F)C4)CC3)cn2cc1NC(=O)c1cnn2cccnc12 [TM-236] | 22.4 | –
– | CN(C)c1cc2nn([C@H]3CC[C@H](CN4CCC(c5nc6cc(C7CCC(=O)NC7=O)cc(F)c6o5)CC4)CC3)cc2cc1NC(=O)c1cnn2cccnc12 (stereo partly drawn) [TM-238] | 4.18 | –
18.1 | CN(C)c1cc2nn([C@H]3CC[C@H](CN4CC5(CCN(c6nc7ccc(C8CCC(=O)NC8=O)cn7n6)CC5)C4)CC3)cc2cc1NC(=O)c1cnn2cccnc12 (stereo partly drawn) [TM-251] | – | 2.19
